Values quoted from earlier work, collected in patent publication US20150150789A1, “ANTIMICROBIAL COMPOSITIONS AND METHODS FOR PREVENTING INFECTION IN SURGICAL INCISION SITES” (TYRX, Inc., priority 2013, published 2015).

Details: for solubility in organic solvents: alcohols, ketones, ethers, aldehydes, acetonitrile, acetic acid, methylene chloride, chloroform (novobiocin sodium: alcohol)

Row | Structure (SMILES) | solubility in organic solvents | solubility in water | solubility in acidic aqueous solutions (acidic aqueous solutions)
1 | Oc1c(Cl)cc(Cl)c(Cl)c1Cc1c(O)c(Cl)cc(Cl)c1Cl [Hexachlorophene] | soluble | soluble | –
2 | CO[C@@H]1[C@@H](OC(N)=O)[C@@H](O)[C@H](Oc2ccc3c(O)c(NC(=O)c4ccc(O)c(CC=C(C)C)c4)c(=O)oc3c2C)OC1(C)C [Novobiocin sodium] | freely soluble | freely soluble | –
3 | CO[C@H]1/C=C/O[C@@]2(C)Oc3c(C)c(O)c4c(O)c(c(/C=N/N5CCN(C)CC5)c(O)c4c3C2=O)NC(=O)/C(C)=C\C=C\[C@H](C)[C@H](O)[C@@H](C)[C@@H](O)[C@@H](C)[C@H](OC(C)=O)[C@@H]1C [Rifampin, rifampin] | freely soluble | very slightly soluble | freely soluble

Second part, the compound after the results:

Row | solubility in organic solvents | solubility in water | solubility in acidic aqueous solutions (acidic aqueous solutions) | Structure (SMILES)
4 | soluble | slightly soluble | – | CC[C@H]1OC(=O)[C@H](C)[C@@H](O[C@H]2C[C@@](C)(OC)[C@@H](O)[C@H](C)O2)[C@H](C)[C@@H](O[C@@H]2O[C@H](C)C[C@H](N(C)C)[C@H]2O)[C@](C)(O)C[C@@H](C)C(=O)[C@H](C)[C@@H](O)[C@]1(C)O [Erythromycin]
5 | readily soluble | readily soluble | – | CCOc1ccc2ccccc2c1C(=O)N[C@@H]1C(=O)N2[C@@H]1SC(C)(C)[C@@H]2C(=O)O [Nafcillin]
